The source of these data is publication PMC3003761 (ACS chemical biology, 2010).

Like-named read-outs stand apart in the source and are kept apart here.

One series has as its target Shaker-IR KV channel (Drosophila melanogaster, UniProt P08510, DEL6-46). Briefly: cell-based.
Another series in a line: in vivo. To be noted: male, CD-1, mouse, ip, 3 mg/kg.
Series [1] concerns rat phrenic nerve-hemidiaphragm preparations. To be noted: cited from earlier work.
In another series the test system is BoNT/A. The series is classed as in vivo, mouse. To be noted: n = 10.
For series [2] the following is noted: mouse, in vivo, ip, 3 mg/kg.
The conditions of series [3]: mouse, in vivo.
In series [4] the test system is serotype A botulinum neurotoxin-induced paralysis of mouse phrenic nerve-hemidiaphragm preparations.

A word on the Hill coefficient: it is the slope factor of the fitted curve. Usually Tmax stands for the time at which the peak concentration occurs. As usually defined, the half-life is how long it takes for the measured level to halve. Lower therefore signals rapid decline. At Shaker-IR KV channel, `Nc1ccncc1N` [Compound 3, 3,4 diaminopyridine, reference compound] gave a Hill coefficient of 1.04 ± 0.18 and an IC50 of 26.7 ± 4 µM. In the series “in vivo”, the Tmax worked out at 30 min and the half-life was 20.4 min.

For `C[n+]1ccc(N)c(N)c1` [Compound 4, 3,4-diamino-1-methylpyridinium], the “activity in rat phrenic nerve-hemidiaphragm preparations” value in series [1] is “inactive”.

At Shaker-IR KV channel, `Nc1cncc(N)c1N` [Compound 5, 3,4,5-Triaminopyridine] registered a Hill coefficient of 1.09 ± 0.13 and an IC50 of 697 µM. For the same compound, the “Rescue of BoNT/A intoxicated mice” value in the series with BoNT/A was “as effective as 3,4-DAP”. Besides, the brain exposure entry in series [2] is recorded as “no detectable brain exposure”. For the same compound, the “toxicity (distress) after compound alone” value in series [3] is recorded as “no distress was observed”. For the same compound, in the series “in vivo”, the Tmax worked out at 30 min and the half-life is 18.6 min.

In the case of `c1cc2nc[nH]c2cn1` [Compound 7, 5-azabenzimidazole], in series [4], the “Ability to reverse BoNT/A-induced muscle paralysis” value is “unable to reverse BoNT/A-induced muscle paralysis”.

The compound `C#CC[n+]1ccc(N)c(N)c1` [Compound 11, 3,4-diamino-1-(prop-2-ynyl)pyridinium] returned a Hill coefficient on Shaker-IR KV channel of 1.28 ± 0.34. Besides, the IC50 on Shaker-IR KV channel (read-out: K0.5 (compound concentration required to achieve 50% inhibition)) was found to be 22.2 ± 4.3 µM. For the same compound, the “Rescue of BoNT/A intoxicated mice” value in the series on BoNT/A was “low efficacy”. Also, in series [2], the “AUC(0-infinity) (plasma)” value was found to be 620 ng·h/mL, the “Cmax (plasma)” value is given as 402 ng/mL, the “Tmax (plasma)” value amounted to 30 min and the “brain exposure as percentage of the plasma exposure” value is listed as 13%. In addition, the plasma half-life in series [2] came out at 72 min. Also, in series [3], the “toxicity (distress) after compound alone” value was “no distress was observed”.

Take `CC[N+](CC)(CC)CCCc1ccccc1` [Compound 12, triethyl-3-phenylpropylammonium]: the “Ability to reverse BoNT/A-induced muscle paralysis” value in series [4] is on record as “apparent neurotoxicity of the compound 12 prevented determination”.
